# According to patent US20090311237A1, “Combination therapy using a soluble hyaluronidase and a bisphosphonate” (priority 2008, published 2009):
# Where two headings read alike, the source gives them in different places.
# Assay: Phase 1 Stage 1 clinical pharmacokinetics of SC ZA co-administered with rHuPH20
# Type: in vivo, human
# Settings: human, serum, sc, serum; for concentration at 6 h: 6 h post infusion; for concentration at 8 h: 8 h post infusion; for concentration at 12 h: 12 h post infusion; for concentration at 0 h: 0 h post infusion; for concentration at 10 min: 10 min post infusion; for concentration at 0.5 h: 0.5 h post infusion; for concentration at 1 h: 1 h post infusion; for concentration at 2 h: 2 h post infusion; for concentration at 4 h: 4 h post infusion; for concentration at 24 h: 24 h post infusion; for concentration at 48 h: 48 h post infusion
# Protocol: A pharmacokinetic study of zoledronic acid (ZA) co-administered with rHuPH20 in human subjects was conducted. The primary objective of the study was to determine the bioavailability of zoledronic acid dosed via subcutaneous (SC) co-administration with human recombinant hyaluronidase PH20 (rHuPH20). […] The patients were administered the prescribed dosage formulations as follows: Cohorts 1-5 were administered a single subcutaneous infusion in a dosage volume of 100 ml at a rate of 3 mL/min. […] The dosing solution is administered via needle or catheter into the SC space of the left anterior thigh (midway between the anterior iliac crest and the cephalad border of the patella). For cohorts 1-5, the dosing solutions were administered by a controlled rate infusion pump at approximately 3 mL/minute. […] The dosing solutions were administered by syringe push bolus injection. […] Serum concentration of ZA was determined using a qualified LC-MS-MS assay after derivatization with diazomethane (Zhu, L S et al. (2006) Rapid Commun. […] The assay range was from 2.0 to 400 ng/mL with a lower limit of quantitation (LLOQ) at 2.0 ng/mL. […] Non-compartmental analysis was used for derivation of primary and secondary pharmacokinetic (PK) parameters. […] Summary statistics (mean, standard deviation, and median) were calculated using JMP or Microsoft Excel.
# [1] = ZA 0.5 mg SC infusion + 24000 Units rHuPH20, n=3, read-out: Median Conc.
# [2] = ZA 0.5 mg SC infusion + 24000 Units rHuPH20, individual subjects, read-out: Zoledronic Acid Concentration
# [3] = ZA 0.5 mg SC infusion + 24000 Units rHuPH20, n=3, read-out: Mean Conc.
# [4] = ZA 1 mg SC infusion + 24000 Units rHuPH20, individual subjects, read-out: Zoledronic Acid Concentration
# [5] = ZA 1 mg SC infusion + 24000 Units rHuPH20, n=3, read-out: Mean Conc.
# [6] = ZA 1 mg SC infusion + 24000 Units rHuPH20, n=3, read-out: Median Conc.
# [7] = ZA 2 mg SC infusion + 24000 Units rHuPH20, individual subjects, read-out: Zoledronic Acid Concentration
# [8] = ZA 2 mg SC infusion + 24000 Units rHuPH20, n=3, read-out: Mean Conc.
# [9] = ZA 2 mg SC infusion + 24000 Units rHuPH20, n=3, read-out: Median Conc.
# [10] = ZA 5 mg SC infusion + 24000 Units rHuPH20, n=3, read-out: Mean Conc.
# [11] = ZA 5 mg SC infusion + 24000 Units rHuPH20, n=3, read-out: Median Conc.
# [12] = ZA 5 mg SC infusion + 24000 Units rHuPH20, individual subjects, read-out: Zoledronic Acid Concentration
compound,measurement,setting,value
"O=P(O)(O)C(O)(Cn1ccnc1)P(=O)(O)O [ZA, 1-hydroxy-2-(1H-imidazol-1-yl)ethylidene-1,1-bisphosphonic acid]",concentration at 6 h,[1],2.53 ng/mL
same,concentration at 8 h,[2],1.19 ng/mL
same,concentration at 8 h,[3],1.32 ng/mL
same,concentration at 8 h,[1],1.34 ng/mL
same,concentration at 12 h,[2],0.52 ng/mL
same,concentration at 12 h,[3],0.54 ng/mL
same,concentration at 12 h,[1],0.55 ng/mL
same,concentration at 0 h,[4],28.4 ng/mL
same,concentration at 0 h,[5],20.5 ng/mL
same,concentration at 0 h,[6],17.9 ng/mL
same,concentration at 10 min,[4],32.1 ng/mL
same,concentration at 10 min,[5],27.2 ng/mL
same,concentration at 10 min,[6],25 ng/mL
same,concentration at 0.5 h,[4],33.4 ng/mL
same,concentration at 0.5 h,[5],28.1 ng/mL
same,concentration at 0.5 h,[6],28 ng/mL
same,concentration at 1 h,[4],29.9 ng/mL
same,concentration at 1 h,[5],25.5 ng/mL
same,concentration at 1 h,[6],27.2 ng/mL
same,concentration at 2 h,[4],24 ng/mL
same,concentration at 2 h,[5],19.6 ng/mL
same,concentration at 2 h,[6],17.7 ng/mL
same,concentration at 4 h,[4],13.3 ng/mL
same,concentration at 4 h,[5],10.3 ng/mL
same,concentration at 4 h,[6],10.2 ng/mL
same,concentration at 6 h,[4],5.48 ng/mL
same,concentration at 6 h,[5],4.9 ng/mL
same,concentration at 6 h,[6],5.47 ng/mL
same,concentration at 8 h,[4],2.44 ng/mL
same,concentration at 8 h,[5],2.69 ng/mL
same,concentration at 8 h,[6],2.46 ng/mL
same,concentration at 12 h,[4],1.02 ng/mL
same,concentration at 12 h,[5],1.09 ng/mL
same,concentration at 12 h,[6],1.02 ng/mL
same,concentration at 24 h,[4],0.56 ng/mL
same,concentration at 24 h,[5],0.52 ng/mL
same,concentration at 24 h,[6],0.51 ng/mL
same,concentration at 0 h,[7],33.3 ng/mL
same,concentration at 0 h,[8],37.9 ng/mL
same,concentration at 0 h,[9],39.6 ng/mL
same,concentration at 10 min,[7],52.5 ng/mL
same,concentration at 10 min,[8],48.3 ng/mL
same,concentration at 10 min,[9],46.3 ng/mL
same,concentration at 0.5 h,[7],59.8 ng/mL
same,concentration at 0.5 h,[8],51.9 ng/mL
same,concentration at 0.5 h,[9],48.6 ng/mL
same,concentration at 1 h,[7],57.7 ng/mL
same,concentration at 1 h,[8],56.5 ng/mL
same,concentration at 1 h,[9],57.7 ng/mL
same,concentration at 2 h,[7],42.5 ng/mL
same,concentration at 2 h,[8],41.6 ng/mL
same,concentration at 2 h,[9],42.2 ng/mL
same,concentration at 4 h,[7],17.5 ng/mL
same,concentration at 4 h,[8],20.3 ng/mL
same,concentration at 4 h,[9],20.3 ng/mL
same,concentration at 6 h,[7],6.43 ng/mL
same,concentration at 6 h,[8],7.69 ng/mL
same,concentration at 6 h,[9],7.71 ng/mL
same,concentration at 8 h,[7],3.15 ng/mL
same,concentration at 8 h,[8],3.77 ng/mL
same,concentration at 8 h,[9],3.34 ng/mL
same,concentration at 12 h,[7],1.5 ng/mL
same,concentration at 12 h,[8],1.74 ng/mL
same,concentration at 12 h,[9],1.64 ng/mL
same,concentration at 24 h,[7],0.78 ng/mL
same,concentration at 24 h,[8],0.87 ng/mL
same,concentration at 24 h,[9],0.85 ng/mL
same,concentration at 48 h,[7],0.62 ng/mL
same,concentration at 48 h,[8],0.21 ng/mL
same,concentration at 0 h,[10],88.6 ng/mL
same,concentration at 0 h,[11],82.3 ng/mL
same,concentration at 10 min,[12],121 ng/mL
same,concentration at 10 min,[10],110 ng/mL
same,concentration at 10 min,[11],121 ng/mL
same,concentration at 0.5 h,[12],130 ng/mL
same,concentration at 0.5 h,[10],125 ng/mL
same,concentration at 0.5 h,[11],130 ng/mL
same,concentration at 1 h,[12],124 ng/mL
same,concentration at 1 h,[10],118 ng/mL
same,concentration at 1 h,[11],116 ng/mL
same,concentration at 2 h,[12],83.5 ng/mL
same,concentration at 2 h,[10],86.6 ng/mL
same,concentration at 2 h,[11],86.5 ng/mL
same,concentration at 4 h,[12],45.6 ng/mL
same,concentration at 4 h,[10],50 ng/mL
same,concentration at 4 h,[11],45.6 ng/mL
same,concentration at 6 h,[12],20.3 ng/mL
same,concentration at 6 h,[10],23.5 ng/mL
